In PMC8071193, “Dual-Target Compounds against Type 2 Diabetes Mellitus: Proof of Concept for Sodium Dependent Glucose Transporter (SGLT) and Glycogen Phosphorylase (GP) Inhibitors” (Pharmaceuticals, 2021):
Where two headings read alike, the source gives them in different places.

Experiments:
SGLT2 = target: T1, SGLT2 (Homo sapiens, UniProt P31639); assay: SGLT2 inhibition, 2-NBDG glucose uptake in SGLT2-overexpressing TSA201 cells; assay type: cell-based; details: for SGLT2 inhibition (in words): TSA201 cells, up to 1000 µM; for factor by which the 2-naphthyl derivative is the stronger inhibitor of SGLT2: comparisons 21a–21b and 24a–24b
T1 construct: host or cells: TSA201 (Human Embryonal Kidney) cells, lentiviral transduction, puromycin selection
T1 sequence (P31639 1-672): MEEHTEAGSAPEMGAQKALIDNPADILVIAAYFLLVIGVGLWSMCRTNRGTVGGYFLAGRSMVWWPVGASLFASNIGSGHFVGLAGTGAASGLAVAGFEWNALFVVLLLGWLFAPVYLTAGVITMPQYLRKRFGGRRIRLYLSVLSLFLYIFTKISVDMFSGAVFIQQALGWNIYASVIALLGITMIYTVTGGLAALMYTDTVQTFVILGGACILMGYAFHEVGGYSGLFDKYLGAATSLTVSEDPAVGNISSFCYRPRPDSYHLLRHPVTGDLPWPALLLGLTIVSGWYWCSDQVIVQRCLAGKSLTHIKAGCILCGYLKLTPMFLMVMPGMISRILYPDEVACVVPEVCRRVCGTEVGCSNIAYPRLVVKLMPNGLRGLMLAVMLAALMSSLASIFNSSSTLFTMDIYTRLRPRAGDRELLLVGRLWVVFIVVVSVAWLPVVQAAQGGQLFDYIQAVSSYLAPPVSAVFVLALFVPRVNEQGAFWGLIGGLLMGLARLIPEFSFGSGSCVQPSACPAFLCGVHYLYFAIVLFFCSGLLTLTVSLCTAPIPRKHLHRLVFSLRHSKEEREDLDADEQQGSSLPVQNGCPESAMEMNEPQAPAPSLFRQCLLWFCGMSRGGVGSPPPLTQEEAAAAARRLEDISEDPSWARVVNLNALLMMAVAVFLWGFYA
Description: (§1) Cells (100,000 cells, TSA201) were plated into each well of a 24-well plate and incubated overnight at 37 °C. […] Two wells were treated only with hexadimetrine bromide as a control. After 24 h of transfection, the medium was changed to fresh medium without antibiotics. Cells were collected and transferred into T-25 flasks after 3 days. On the fifth day, 10 µg/mL puromycin was added to select only the transfected cells. The nontransfected cells cannot survive this high concentration of antibiotic. To keep up the selection, the medium including 10 µg/mL puromycin was replaced every two days. The cells lived under puromycin pressure until the day of the experiments.
(§2) TSA201 cells (25,000) with and without overexpressed SGLT1 or 2 were put into poly-L-lysine (P5999, Sigma-Aldrich, St. Luis, MO, USA) treated wells of a 96-well plate. The next day, the cells were starved for 1 h with 90 µL glucose-free medium (D5036-10X1L Sigma-Aldrich, St. Luis, MO, USA) (with or without inhibitor). After starving, cells were treated with 100 µM 2-NBDG and incubated for 30 min (again with or without inhibitor). The incubation time of cells with possible inhibitors was 90 min altogether. After incubation, the medium was removed, the wells were washed with PBS twice, lysed with 100 µL lysis buffer (0.1 M KH2PO4 + 1% Triton-x, pH = 11), and stored at -20°C. […] Subsequently, the protein concentration was measured and NBDG uptake was normalized to protein amount.
(§3) After selecting optimal concentrations, each compound was tested at four different concentrations. […] To determine the specific effects of the compounds on SGLT1 or 2, the glucose uptake values in TSA201 cells without SGLT overexpression were subtracted from the values in TSA201 cell overexpressing SGLT. […] All calculations were prepared using the GraphPad Prism software (GraphPad Software, Inc., SanDiego, CA, USA). The data were plotted on a logarithmic scale as a function of inhibitor concentration. The IC50 values were calculated by non-linear regression analysis from sigmoidal dose-response curves. The results of kinetic experiments were calculated from at least three independent experiments. Each experiment contained four parallel samples that were averaged. The standard deviations were calculated based on the average values for the independent experiments.

SGLT1 = target: T2, SGLT1 (Homo sapiens, UniProt P13866); assay: SGLT1 inhibition, 2-NBDG glucose uptake in SGLT1-overexpressing TSA201 cells; assay type: cell-based
T2 construct: host or cells: TSA201 (Human Embryonal Kidney) cells, lentiviral transduction, puromycin selection
T2 sequence (P13866 1-664): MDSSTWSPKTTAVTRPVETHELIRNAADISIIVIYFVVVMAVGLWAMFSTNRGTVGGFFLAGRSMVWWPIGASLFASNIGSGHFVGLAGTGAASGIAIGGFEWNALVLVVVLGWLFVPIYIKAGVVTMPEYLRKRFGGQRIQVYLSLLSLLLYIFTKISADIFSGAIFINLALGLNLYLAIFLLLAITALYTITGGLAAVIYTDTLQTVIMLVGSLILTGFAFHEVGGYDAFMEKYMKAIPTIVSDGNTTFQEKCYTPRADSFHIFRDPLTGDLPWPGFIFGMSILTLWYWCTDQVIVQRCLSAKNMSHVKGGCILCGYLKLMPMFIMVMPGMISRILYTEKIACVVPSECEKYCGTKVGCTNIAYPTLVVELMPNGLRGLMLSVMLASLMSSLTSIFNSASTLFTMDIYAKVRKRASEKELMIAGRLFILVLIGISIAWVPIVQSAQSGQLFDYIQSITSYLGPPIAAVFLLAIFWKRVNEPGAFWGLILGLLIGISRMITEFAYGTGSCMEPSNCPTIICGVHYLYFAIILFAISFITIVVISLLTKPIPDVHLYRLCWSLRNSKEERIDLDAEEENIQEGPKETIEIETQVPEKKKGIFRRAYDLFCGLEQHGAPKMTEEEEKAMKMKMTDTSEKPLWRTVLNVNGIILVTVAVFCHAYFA
Description: as §1, §2, §3

[1] = target: T3, rabbit muscle glycogen phosphorylase b (rmGPb) (Oryctolagus cuniculus, UniProt P00489); assay: Glycogen phosphorylase b enzyme kinetic inhibition assay (direction of glycogen synthesis); assay type: biochemical
T3 construct: Glycogen phosphorylase b was isolated from rabbit skeletal muscle; from tissue; host or cells: rabbit skeletal muscle
T3 sequence (P00489 1-843): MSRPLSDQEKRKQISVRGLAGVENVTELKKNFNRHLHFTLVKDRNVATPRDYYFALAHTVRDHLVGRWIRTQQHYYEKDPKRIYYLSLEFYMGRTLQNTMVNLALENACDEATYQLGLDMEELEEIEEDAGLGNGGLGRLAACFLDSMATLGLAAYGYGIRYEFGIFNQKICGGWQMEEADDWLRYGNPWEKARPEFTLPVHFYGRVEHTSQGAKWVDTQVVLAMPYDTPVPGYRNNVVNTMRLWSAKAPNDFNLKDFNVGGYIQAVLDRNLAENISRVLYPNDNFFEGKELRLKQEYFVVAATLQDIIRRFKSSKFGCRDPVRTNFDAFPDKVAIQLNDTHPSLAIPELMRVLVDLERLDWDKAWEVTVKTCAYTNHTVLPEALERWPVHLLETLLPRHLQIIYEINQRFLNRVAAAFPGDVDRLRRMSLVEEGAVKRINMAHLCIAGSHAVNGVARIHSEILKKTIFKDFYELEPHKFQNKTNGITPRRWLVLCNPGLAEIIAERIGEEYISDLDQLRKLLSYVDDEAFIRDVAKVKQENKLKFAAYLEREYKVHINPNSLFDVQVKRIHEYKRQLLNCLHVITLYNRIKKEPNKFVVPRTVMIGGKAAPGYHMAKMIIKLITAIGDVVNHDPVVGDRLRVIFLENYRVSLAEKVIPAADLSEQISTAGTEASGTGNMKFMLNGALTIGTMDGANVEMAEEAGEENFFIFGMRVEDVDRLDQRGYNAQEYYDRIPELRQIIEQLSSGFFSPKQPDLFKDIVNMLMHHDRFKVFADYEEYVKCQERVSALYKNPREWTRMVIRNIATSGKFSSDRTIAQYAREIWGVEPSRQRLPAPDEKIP
Description: The 2-NBDG (2-deoxy-2-[(7-nitro-2,1,3-benzoxadiazol-4-yl)amino]-D-glucose, cat. 11046) was purchased from Cayman Chemical Company (Ann Arbor, MI, USA). Lentivirus for SLC5A1 and SLC5A2 (NM_000343 for SGLT1, and NM-003041 for SGLT2) were obtained from Origene (Rockville, MD, USA). These expression vectors contain a puromycin resistance gene. […] CyQUANT^TM Cell Proliferation Assay Kit (2036547) was from Invitrogen (Carlsbad, CA, USA). Glycogen phosphorylase b was isolated from rabbit skeletal muscle according to the method of Fischer and Krebs.
Enzyme activity in the direction of glycogen synthesis was assayed. Kinetic data were collected using the muscle phosphorylase b (dephosphorylated, GPb) isoform. […] Enzymatic activities were presented in the form of a double-reciprocal plot (Lineweaver-Burk). The plots were analysed by a non-linear data analysis program. The inhibitor constants (Ki) were determined by secondary plots, replotting the slopes from the Lineweaver-Burk plot against the inhibitor concentrations. The means of standard errors for all calculated kinetic parameters averaged to less than 10% [78, 79].

[2] = Table 3, TSA-201 cells, NI: no inhibition at 1000 µM
[3] = Table 2, TSA-201 cells, NI: no inhibition at 1000 µM, compounds 1-2 used as controls for in-house assay
[4] = Table 2, NI: no inhibition at 625 µM

IC50 (SGLT2; [2]) [µM]	IC50 (SGLT1; [2]) [µM]	SGLT2 inhibition (in words) (SGLT2)	IC50 (SGLT1; [3]) [µM]	IC50 [1, 4] [µM]	IC50 (SGLT2) [µM]	IC50 (SGLT1) [µM]	Compound	further results
> 1000	> 1000						OC[C@H]1O[C@@H](c2nc(-c3ccccc3)cs2)[C@H](O)[C@@H](O)[C@@H]1O [23a]	
		inactive	> 1000	> 625			OC[C@H]1O[C@@H](c2nccc(Cc3ccc(Cl)cc3)n2)[C@H](O)[C@@H](O)[C@@H]1O [16c, 4-(4-Chlorobenzyl)-2-(β-D-glucopyranosyl)pyrimidine]	IC50 (SGLT2; [3]): > 1000 µM
10.3 ± 2.18	127 ± 21.6						OC[C@H]1O[C@@H](n2cc(-c3ccc4ccccc4c3)nn2)[C@H](O)[C@@H](O)[C@@H]1O [21b]	factor by which the 2-naphthyl derivative is the stronger inhibitor of SGLT2 (SGLT2): ~ 7
							CCOc1ccc(Cc2cc([C@@H]3O[C@H](CO)[C@@H](O)[C@H](O)[C@H]3O)ccc2Cl)cc1 [compound 2, dapagliflozin, reference compound]	IC50 [1]: > 625 µM
		complete loss of the inhibition	> 1000	> 625			COc1ccc(Cc2nc([C@@H]3O[C@H](CO)[C@@H](O)[C@H](O)[C@H]3O)no2)cc1 [10b, 3-(β-D-Glucopyranosyl)-5-(4-methoxybenzyl)-1,2,4-oxadiazole]	IC50 (SGLT2; [3]): > 1000 µM
				> 625	71.7 ± 10.6	19.6 ± 7.26	OC[C@H]1O[C@@H](c2nc(Cc3ccccc3)n[nH]2)[C@H](O)[C@@H](O)[C@@H]1O [19a]	fold weakening in the SGLT2 inhibition (SGLT2; 19a vs. 10a and 13a): 20-30 fold
91.04 ± 0.56	245 ± 42						OC[C@H]1O[C@@H](c2nc(-c3ccccc3)c[nH]2)[C@H](O)[C@@H](O)[C@@H]1O [24a]	
				> 625	2.44 ± 0.85	35.5 ± 9.56	OC[C@H]1O[C@@H](c2nc(Cc3ccccc3)n(-c3ccccc3)n2)[C@H](O)[C@@H](O)[C@@H]1O [19c]	
15 ± 2.74	125 ± 46.5						OC[C@H]1O[C@@H](c2nnc(-c3ccccc3)[nH]2)[C@H](O)[C@@H](O)[C@@H]1O [25a]	
					3.57 ± 0.42	11.7 ± 2.48	OC[C@H]1O[C@@H](c2nc(Cc3ccccc3)c[nH]2)[C@H](O)[C@@H](O)[C@@H]1O [compound 18, 4(5)-Benzyl-2-(β-D-glucopyranosyl)imidazole]	times more effective (SGLT2 inhibition) (SGLT2; compared to 1,2,4-triazole 19a): ~ 20 times; inhibition at 625 µM ([1]; Table 2, at 625 µM): 12%
> 1000	> 1000						OC[C@H]1O[C@@H](c2nc(-c3ccc4ccccc4c3)cs2)[C@H](O)[C@@H](O)[C@@H]1O [23b]	
		complete loss of the inhibition	> 1000	> 625			OC[C@H]1O[C@@H](c2noc(Cc3ccc(Cl)cc3)n2)[C@H](O)[C@@H](O)[C@@H]1O [10c, 5-(4-Chlorobenzyl)-3-(β-D-glucopyranosyl)-1,2,4-oxadiazole]	IC50 (SGLT2; [3]): > 1000 µM
		complete loss of the inhibition	> 1000	> 625			OC[C@H]1O[C@@H](c2nnc(Cc3ccc(Cl)cc3)o2)[C@H](O)[C@@H](O)[C@@H]1O [13c, 5-(4-Chlorobenzyl)-2-(β-D-glucopyranosyl)-1,3,4-oxadiazole]	IC50 (SGLT2; [3]): > 1000 µM
		non-inhibitory	> 1000	> 625			OC[C@H]1O[C@@H](c2nccc(Cc3ccc4ccccc4c3)n2)[C@H](O)[C@@H](O)[C@@H]1O [16d, 2-(β-D-Glucopyranosyl)-4-(2-naphthylmethyl)pyrimidine]	IC50 (SGLT2; [3]): > 1000 µM
67.3 ± 10.9	167 ± 63.5						OC[C@H]1O[C@@H](n2cc(-c3ccccc3)nn2)[C@H](O)[C@@H](O)[C@@H]1O [21a]	
		complete loss of the inhibition	> 1000	> 625			OCCn1nc([C@@H]2O[C@H](CO)[C@@H](O)[C@H](O)[C@H]2O)nc1Cc1ccccc1 [19b]	IC50 (SGLT2; [3]): > 1000 µM
					23.2 ± 1.86	101 ± 23.5	OC[C@H]1O[C@@H](n2cc(Cc3ccccc3)nn2)[C@H](O)[C@@H](O)[C@@H]1O [compound 20]	
		showed inhibitory effects		> 625	3.68 ± 0.59	20.7 ± 7.66	OC[C@H]1O[C@@H](c2noc(Cc3ccccc3)n2)[C@H](O)[C@@H](O)[C@@H]1O [10a, 5-Benzyl-3-(β-D-glucopyranosyl)-1,2,4-oxadiazole]	
		showed inhibitory effects		> 625	2.21 ± 0.58	23.7 ± 6.14	OC[C@H]1O[C@@H](c2nnc(Cc3ccccc3)o2)[C@H](O)[C@@H](O)[C@@H]1O [13a, 5-Benzyl-2-(β-D-glucopyranosyl)-1,3,4-oxadiazole]	
3.5 ± 0.88	11.9 ± 2.61						OC[C@H]1O[C@@H](c2nc(-c3ccc4ccccc4c3)c[nH]2)[C@H](O)[C@@H](O)[C@@H]1O [24b, 2-(β-D-glucopyranosyl)-4(5)-(2-naphthyl)-imidazole]	factor by which the 2-naphthyl derivative is the stronger inhibitor of SGLT2 (SGLT2): ~ 26

Compound	IC50 (SGLT2; [2]) [µM]	IC50 (SGLT1; [2]) [µM]	SGLT2 inhibition (in words) (SGLT2)	IC50 (SGLT1; [3]) [µM]	IC50 [1, 4] [µM]	IC50 (SGLT2) [µM]	IC50 (SGLT1) [µM]	further results
OC[C@H]1O[C@@H](c2nccc(Cc3ccccc3)n2)[C@H](O)[C@@H](O)[C@@H]1O [16a, 4-Benzyl-2-(β-D-glucopyranosyl)pyrimidine]			inhibitory activity in the micromolar range		> 625	17 ± 3.16	18 ± 3.92	
OC[C@H]1O[C@@H](c2nc(-c3ccc4ccccc4c3)n[nH]2)[C@H](O)[C@@H](O)[C@@H]1O [25b]	17.7 ± 2.32	13 ± 2.88						
COc1ccc(Cc2ccnc([C@@H]3O[C@H](CO)[C@@H](O)[C@H](O)[C@H]3O)n2)cc1 [16b, 2-(β-D-Glucopyranosyl)-4-(4-methoxybenzyl)pyrimidine]			inhibitory activity in the micromolar range	> 1000	> 625	11.6 ± 3.19		
